IC50 data for two molecules are collected here from publication doi:10.1101/2023.09.11.557162v4 (biorxiv, 2025).

Some targets named below: SMARCA2 (Homo sapiens, UniProt P51531); SMARCA4 (Homo sapiens, UniProt P51532); CHD4 (Homo sapiens, UniProt Q14839).
Assay in all cases: DNA-dependent ATPase assay
Format in all cases: biochemical

Read-outs that look alike come from different tables or passages of the source. Where only a bound is given, the exact number is not on record here.

Sequence of SMARCA4 (P51532 whole entry): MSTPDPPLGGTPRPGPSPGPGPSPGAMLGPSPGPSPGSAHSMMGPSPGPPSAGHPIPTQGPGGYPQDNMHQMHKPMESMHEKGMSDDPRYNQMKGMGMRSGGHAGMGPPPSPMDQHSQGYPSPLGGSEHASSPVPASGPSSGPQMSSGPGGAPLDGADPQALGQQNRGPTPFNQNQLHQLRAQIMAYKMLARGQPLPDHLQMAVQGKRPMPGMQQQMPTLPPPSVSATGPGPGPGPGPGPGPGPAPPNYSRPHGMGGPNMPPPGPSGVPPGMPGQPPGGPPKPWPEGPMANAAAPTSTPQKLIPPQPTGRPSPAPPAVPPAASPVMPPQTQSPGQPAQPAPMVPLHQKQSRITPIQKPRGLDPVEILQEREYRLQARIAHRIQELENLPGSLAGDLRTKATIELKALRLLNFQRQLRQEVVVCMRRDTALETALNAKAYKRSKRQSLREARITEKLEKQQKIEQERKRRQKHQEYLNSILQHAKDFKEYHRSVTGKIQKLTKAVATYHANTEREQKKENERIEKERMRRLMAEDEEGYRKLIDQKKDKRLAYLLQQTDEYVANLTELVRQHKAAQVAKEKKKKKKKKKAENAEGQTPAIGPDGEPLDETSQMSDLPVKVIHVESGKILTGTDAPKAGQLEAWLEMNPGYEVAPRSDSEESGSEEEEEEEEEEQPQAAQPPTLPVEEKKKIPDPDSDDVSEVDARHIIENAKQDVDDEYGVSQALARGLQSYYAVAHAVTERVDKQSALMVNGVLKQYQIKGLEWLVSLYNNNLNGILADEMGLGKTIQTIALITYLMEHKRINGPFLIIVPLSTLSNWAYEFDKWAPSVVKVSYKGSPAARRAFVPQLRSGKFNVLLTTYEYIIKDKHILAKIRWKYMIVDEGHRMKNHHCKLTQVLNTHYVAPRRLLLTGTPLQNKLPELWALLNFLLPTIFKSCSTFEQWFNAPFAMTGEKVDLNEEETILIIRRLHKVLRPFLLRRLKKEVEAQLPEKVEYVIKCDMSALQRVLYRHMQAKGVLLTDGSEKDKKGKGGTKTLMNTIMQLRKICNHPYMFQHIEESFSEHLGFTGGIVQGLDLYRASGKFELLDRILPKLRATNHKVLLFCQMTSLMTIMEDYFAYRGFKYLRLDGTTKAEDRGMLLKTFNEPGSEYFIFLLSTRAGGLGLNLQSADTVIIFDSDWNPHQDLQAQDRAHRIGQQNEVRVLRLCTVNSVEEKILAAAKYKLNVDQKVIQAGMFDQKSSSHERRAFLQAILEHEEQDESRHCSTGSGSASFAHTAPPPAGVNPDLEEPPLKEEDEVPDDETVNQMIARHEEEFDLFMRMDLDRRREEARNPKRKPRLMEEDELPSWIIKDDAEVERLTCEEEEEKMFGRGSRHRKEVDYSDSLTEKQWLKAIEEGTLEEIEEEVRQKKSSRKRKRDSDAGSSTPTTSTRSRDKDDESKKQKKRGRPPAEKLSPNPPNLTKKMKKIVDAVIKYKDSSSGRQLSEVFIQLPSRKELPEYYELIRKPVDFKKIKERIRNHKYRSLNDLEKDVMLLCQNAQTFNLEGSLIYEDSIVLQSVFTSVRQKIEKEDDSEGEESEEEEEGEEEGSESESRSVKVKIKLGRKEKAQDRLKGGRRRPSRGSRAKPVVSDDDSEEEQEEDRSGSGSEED
Sequence of SMARCA2 (P51531 whole entry): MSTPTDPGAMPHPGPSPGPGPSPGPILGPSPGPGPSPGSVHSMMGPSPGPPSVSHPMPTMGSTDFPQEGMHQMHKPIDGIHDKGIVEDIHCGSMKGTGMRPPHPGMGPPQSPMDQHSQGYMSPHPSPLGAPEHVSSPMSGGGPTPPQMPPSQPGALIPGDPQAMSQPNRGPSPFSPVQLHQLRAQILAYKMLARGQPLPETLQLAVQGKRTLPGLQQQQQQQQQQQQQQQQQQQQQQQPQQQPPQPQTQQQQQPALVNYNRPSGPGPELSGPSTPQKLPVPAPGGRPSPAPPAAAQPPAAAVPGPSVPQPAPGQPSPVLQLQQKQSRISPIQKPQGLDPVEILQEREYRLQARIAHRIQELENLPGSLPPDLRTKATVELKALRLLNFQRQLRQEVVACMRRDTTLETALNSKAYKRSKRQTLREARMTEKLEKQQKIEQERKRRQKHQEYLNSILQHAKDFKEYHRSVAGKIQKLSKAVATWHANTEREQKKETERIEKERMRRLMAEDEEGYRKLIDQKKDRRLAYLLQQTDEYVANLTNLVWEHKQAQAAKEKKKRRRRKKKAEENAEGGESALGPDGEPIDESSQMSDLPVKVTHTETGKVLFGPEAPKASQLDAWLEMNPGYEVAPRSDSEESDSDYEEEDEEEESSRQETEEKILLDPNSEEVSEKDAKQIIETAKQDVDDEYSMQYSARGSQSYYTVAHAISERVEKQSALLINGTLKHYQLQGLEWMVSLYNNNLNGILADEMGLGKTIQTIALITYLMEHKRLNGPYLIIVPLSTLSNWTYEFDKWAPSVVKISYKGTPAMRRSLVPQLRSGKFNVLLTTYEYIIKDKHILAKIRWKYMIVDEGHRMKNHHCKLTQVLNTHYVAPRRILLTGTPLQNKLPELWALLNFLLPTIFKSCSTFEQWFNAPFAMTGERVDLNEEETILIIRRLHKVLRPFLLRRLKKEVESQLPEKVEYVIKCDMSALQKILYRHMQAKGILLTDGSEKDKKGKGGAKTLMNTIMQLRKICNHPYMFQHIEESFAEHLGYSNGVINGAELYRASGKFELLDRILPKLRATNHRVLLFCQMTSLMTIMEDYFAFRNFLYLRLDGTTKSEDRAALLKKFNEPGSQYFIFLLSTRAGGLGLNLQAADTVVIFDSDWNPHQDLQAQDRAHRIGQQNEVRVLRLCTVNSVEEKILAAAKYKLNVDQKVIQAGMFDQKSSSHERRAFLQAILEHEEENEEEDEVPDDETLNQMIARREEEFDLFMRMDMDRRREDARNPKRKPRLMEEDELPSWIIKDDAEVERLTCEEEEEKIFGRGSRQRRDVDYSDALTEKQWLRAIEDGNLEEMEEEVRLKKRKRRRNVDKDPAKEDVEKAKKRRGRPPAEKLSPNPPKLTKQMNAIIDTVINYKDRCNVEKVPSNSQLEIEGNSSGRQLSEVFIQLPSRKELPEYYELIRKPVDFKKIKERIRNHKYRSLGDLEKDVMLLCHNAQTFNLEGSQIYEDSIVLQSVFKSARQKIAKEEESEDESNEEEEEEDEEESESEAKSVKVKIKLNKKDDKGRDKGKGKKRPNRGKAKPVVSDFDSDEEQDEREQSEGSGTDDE
Sequence of CHD4 (Q14839 whole entry): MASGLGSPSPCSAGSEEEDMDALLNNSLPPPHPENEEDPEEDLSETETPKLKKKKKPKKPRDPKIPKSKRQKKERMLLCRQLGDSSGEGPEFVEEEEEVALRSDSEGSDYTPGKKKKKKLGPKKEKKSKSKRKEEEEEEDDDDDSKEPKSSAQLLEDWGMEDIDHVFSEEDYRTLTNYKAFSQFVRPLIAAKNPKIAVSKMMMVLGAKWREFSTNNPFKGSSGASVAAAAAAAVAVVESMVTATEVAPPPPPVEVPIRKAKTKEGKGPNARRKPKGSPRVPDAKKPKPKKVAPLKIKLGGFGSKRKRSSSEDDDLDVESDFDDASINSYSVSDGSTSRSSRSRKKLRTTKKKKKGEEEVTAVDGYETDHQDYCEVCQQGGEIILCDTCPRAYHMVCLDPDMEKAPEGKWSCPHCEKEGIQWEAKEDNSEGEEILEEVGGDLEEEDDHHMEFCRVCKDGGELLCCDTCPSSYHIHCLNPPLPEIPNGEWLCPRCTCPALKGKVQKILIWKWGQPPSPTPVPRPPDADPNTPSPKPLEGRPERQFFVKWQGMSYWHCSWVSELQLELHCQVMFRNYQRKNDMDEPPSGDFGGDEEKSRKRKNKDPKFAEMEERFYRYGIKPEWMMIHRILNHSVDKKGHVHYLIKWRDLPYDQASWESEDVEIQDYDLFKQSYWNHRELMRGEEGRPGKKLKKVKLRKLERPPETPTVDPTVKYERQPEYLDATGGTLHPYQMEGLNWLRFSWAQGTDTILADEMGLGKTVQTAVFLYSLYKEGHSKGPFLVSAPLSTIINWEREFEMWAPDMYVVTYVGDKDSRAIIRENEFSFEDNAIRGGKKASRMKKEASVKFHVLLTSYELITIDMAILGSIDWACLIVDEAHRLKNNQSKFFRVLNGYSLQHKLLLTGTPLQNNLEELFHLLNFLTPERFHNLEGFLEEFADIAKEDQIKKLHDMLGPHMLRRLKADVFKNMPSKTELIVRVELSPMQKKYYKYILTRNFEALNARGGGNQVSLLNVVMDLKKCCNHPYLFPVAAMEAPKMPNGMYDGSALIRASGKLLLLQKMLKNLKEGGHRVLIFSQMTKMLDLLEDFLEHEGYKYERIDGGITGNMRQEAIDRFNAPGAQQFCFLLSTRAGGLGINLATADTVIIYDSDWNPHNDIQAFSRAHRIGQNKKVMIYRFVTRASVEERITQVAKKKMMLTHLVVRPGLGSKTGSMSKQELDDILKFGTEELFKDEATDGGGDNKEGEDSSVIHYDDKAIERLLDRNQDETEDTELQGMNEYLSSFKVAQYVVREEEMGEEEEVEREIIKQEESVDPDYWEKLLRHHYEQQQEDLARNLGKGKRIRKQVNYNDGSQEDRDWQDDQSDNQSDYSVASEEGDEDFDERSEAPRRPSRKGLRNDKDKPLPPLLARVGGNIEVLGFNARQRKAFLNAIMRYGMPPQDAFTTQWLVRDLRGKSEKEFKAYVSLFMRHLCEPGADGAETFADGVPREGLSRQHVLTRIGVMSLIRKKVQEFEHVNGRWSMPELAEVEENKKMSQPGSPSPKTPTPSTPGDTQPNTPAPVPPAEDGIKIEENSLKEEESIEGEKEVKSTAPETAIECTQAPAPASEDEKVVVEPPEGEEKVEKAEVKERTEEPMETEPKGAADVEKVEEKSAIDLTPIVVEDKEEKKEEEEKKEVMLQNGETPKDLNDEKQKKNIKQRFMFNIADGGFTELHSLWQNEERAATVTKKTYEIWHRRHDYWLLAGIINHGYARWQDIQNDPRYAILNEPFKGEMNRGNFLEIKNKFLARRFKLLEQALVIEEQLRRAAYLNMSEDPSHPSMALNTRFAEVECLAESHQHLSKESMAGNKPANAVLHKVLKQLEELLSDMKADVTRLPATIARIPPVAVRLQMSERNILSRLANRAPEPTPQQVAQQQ

In general, IC50 refers to the concentration needed to halve the response being measured. Higher therefore signals weaker potency. With `CN(C)S(=O)(=O)c1cccc(C(=O)NCC(=O)Nc2nc(-c3ccccc3)cs2)c1` [FHT-185], the IC50 against SMARCA2 worked out at 2.5 ± 0.5 µM; against SMARCA4, 6.04 ± 1.04 µM.
With `COC[C@H](NC(=O)c1ccn(S(C)(=O)=O)c1)C(=O)Nc1nc(-c2cccc(-c3ccn(C)n3)c2)cs1` [FHT-2344], the results for the IC50 against CHD4, on SMARCA2 and against SMARCA4 (DNA-stimulated ATPase) were over 200 µM, 0.013 ± 0.003 µM and 0.026 ± 0.006 µM, respectively.
